This note sets out measurements from ChEMBL document CHEMBL1629647, “Preclinical evaluation of GS-9160, a novel inhibitor of human immunodeficiency virus type 1 integrase” (Antimicrob Agents Chemother, 2009).

Molecules are shown by their SMILES. A value given as a limit tells only on which side of the number the result lay.

Data set [1] concerns Human immunodeficiency virus 1. Put plainly: Antiviral activity against HIV1 3B infected in human MT-2 cells by two fold dilution method in presence of 10% FBS. In kind it is functional, organism-based. As to conditions: Human immunodeficiency virus 1, 3B, MT2.
For data set [2], the system named is Human immunodeficiency virus 1. Put plainly: Antiviral activity against HIV1 3B infected in human MT-2 cells by two fold dilution method in presence of 10% FBS, HSA and alpha1-AGP. In kind it is functional, organism-based. The following applies: Human immunodeficiency virus 1, 3B, MT2.
The test system of data set [3] is Human immunodeficiency virus 1. Put plainly: Antiviral activity against 0.01 MOI HIV1 3B infected in human MT-2 cells by two fold dilution method in presence of 100% human serum. The following applies: Human immunodeficiency virus 1, 3B, MT2. In kind it is functional, organism-based.
The subject of data set [4] is Human immunodeficiency virus 1. Put plainly: Antiviral activity against HIV1 3B infected in human MT-4 cells by two fold dilution method in presence of 10% FBS. In kind it is functional, organism-based. As to conditions: Human immunodeficiency virus 1, 3B, MT4.
The nature of data set [5]: Cytotoxicity against human MT4 cells infected with HIV1 3B by three fold dilution method in presence of 10% FBS. In kind it is cell-based. As to conditions: MT4 cells infected with HIV-1 3B.
Data set [6] deals with Human immunodeficiency virus 1. As to the kind of experiment: Antiviral activity against 0.001 MOI HIV1 BAL infected in human T lymphocyte cells by p24 antigen ELISA in presence of 10% FBS. As to conditions: Human immunodeficiency virus 1, BAL. In kind it is functional, organism-based. On the technique in general: In an ELISA, binding on a coated surface is turned into a signal by an enzyme label.

Data set [7] deals with Human immunodeficiency virus 1. Put plainly: Antiviral activity against 0.001 MOI HIV1 BAL infected in human T lymphocyte cells by p24 antigen ELISA in presence of 10% FBS, HSA and alpha1-AGP. It counts as functional, organism-based. As to conditions: Human immunodeficiency virus 1, BAL.
The subject of data set [8] is Human immunodeficiency virus 1. As to the kind of experiment: Antiviral activity against 0.02 MOI HIV1 3B infected in human MT-2 cells by two fold dilution method in presence of 100% human serum. In kind it is functional, organism-based. As to conditions: Human immunodeficiency virus 1, 3B, MT2.
Data set [9] concerns Human immunodeficiency virus 1. As to the kind of experiment: Antiviral activity against HIV1 3B infected in SupT1 cells assessed as fold increase in viral 2-LTR circles accumulation after […] postinfection by TaqMan real-time PCR. It counts as functional, SUP-T1.
Data set [10] in a line: Cytotoxicity against human SupT1 cells infected with HIV1 3B. In kind it is cell-based, SUP-T1. The following applies: SupT1 cells infected with HIV-1 3B.
Data set [11] has as its system Human immunodeficiency virus 1. As to the kind of experiment: Antiviral activity against HIV1 infected in SupT1 cells assessed as accumulation of late RT products after 12 hrs. In kind it is functional, organism-based. The following applies: Human immunodeficiency virus 1, SUP-T1, 12 h.
The subject of data set [12] is Human immunodeficiency virus 1. As to the kind of experiment: Antiviral activity against HIV1 infected in SupT1 cells assessed as accumulation of integrated junction products after 48 hrs by Alu-PCR assay. It counts as functional, organism-based. The following applies: Human immunodeficiency virus 1, SUP-T1, 48 h.
Data set [13] can be described thus: Cytotoxicity against human T lymphocyte cells uninfected by XTT method in presence of 10% FBS.
A short description of data set [14]: Cytotoxicity against human uninfected MT2 cells by three fold dilution method in presence of 10% FBS.
In data set [15] the test system is Human immunodeficiency virus 1. Put plainly: Antiviral activity against 0.04 MOI HIV1 3B infected in human MT-2 cells by […] dilution method in presence of 100% human serum. The following applies: Human immunodeficiency virus 1, 3B, MT2.

For orientation: EC50 means the concentration that produces a half-maximal response. What is called CC50 is the concentration at which the toxic effect on the cells reaches its halfway point.

As for `COc1cc2c(cc1Cc1cccc(Cl)c1F)c(=O)c(C(=O)O)cn2[C@@H](CO)C(C)C`, the EC50 was 0.6 nM in data set [1]; 24 nM in data set [2]; 83 nM in data set [3]; 0.17 nM in data set [4]; 0.2 nM in [6]; 16 nM in [7]. In addition, the 50% effective concentration (EC50) in data set [8] was 121 nM; in [11] it was greater than 1000 nM; in [12] it was 0.3 nM; in [15] it was 207 nM. Besides, the CC50 in data set [5] was 4000 nM; in data set [10], 5300 nM; in data set [13], 40000 nM; in [14], 8000 nM. The “fold change (FC)” value in data set [9] is 2.3.
